Key:
full-length ATR = molecular target: T1, full-length ATR (Homo sapiens, UniProt Q13535); experiment: ATR Inhibition Assay (radioactive-phosphate incorporation); type: biochemical
T1 construct: Assays were carried out at 25° C. in the presence of 5 nM full-length ATR
Procedure: Compounds were screened for their ability to inhibit ATR kinase using a radioactive-phosphate incorporation assay. Assays were carried out in a mixture of 50 mM Tris/HCl (pH 7.5), 10 mM MgCl2 and 1 mM DTT. Final substrate concentrations were 10 μM [γ-33P]ATP (3mCi 33P ATP/mmol ATP, Perkin Elmer) and 800 μM target peptide ([…] (SEQ ID NO: 1)).
Assays were carried out at 25° C. in the presence of 5 nM full-length ATR. An assay stock buffer solution was prepared containing all of the reagents listed above, with the exception of ATP and the test compound of interest. 13.5 μL of the stock solution was placed in a 96 well plate followed by addition of 2 μL of DMSO stock containing serial dilutions of the test compound (typically starting from a final concentration of 15 μM with 3-fold serial dilutions) in duplicate (final DMSO concentration 7%). The plate was pre-incubated for 10 minutes at 25° C. and the reaction initiated by addition of 15 μL [γ-33P]ATP (final concentration 10 μM).
The reaction was stopped after […] by the addition of 30 μL 0.1M phosphoric acid containing 2 mM ATP. A multiscreen phosphocellulose filter 96-well plate (Millipore, Cat no. MAPHN0B50) was pretreated with 100 μL 0.2M phosphoric acid prior to the addition of 45 μL of the stopped assay mixture. The plate was washed with 5×200 μL 0.2M phosphoric acid. After drying, 100 μL Optiphase ‘SuperMix’ liquid scintillation cocktail (Perkin Elmer) was added to the well prior to scintillation counting (1450 Microbeta Liquid Scintillation Counter, Wallac).
After removing mean background values for all of the data points, Ki(app) data were calculated from non-linear regression analysis of the initial rate data using the Prism software package (GraphPad Prism version 3.0cx for Macintosh, GraphPad Software, San Diego Calif., USA).
Below is a chart showing the ATR Inhibition Ki values of compounds of the disclosure.

[1] = system: HCT116 colorectal cancer cells; experiment: Cisplatin Sensitization Assay (96 h cell viability MTS); type: cell-based; conditions: concentration of compound required to reduce the IC50 of Cisplatin alone by at least 3-fold, 96 h MTS
Procedure: Compounds can be screened for their ability to sensitize HCT116 colorectal cancer cells to Cisplatin using a 96 h cell viability (MTS) assay. […] Compounds and Cisplatin are then both added simultaneously to the cell media in 2-fold serial dilutions from a top final concentration of 10 μM as a full matrix of concentrations in a final cell volume of 200 μl, and the cells are then incubated at 37° C. in 5% CO2. After 96 h, 40 μl of MTS reagent (Promega G358a) is added to each well and the cells are incubated for 1 h at 37° C. in 5% CO2.

T1 sequence (Q13535 whole entry): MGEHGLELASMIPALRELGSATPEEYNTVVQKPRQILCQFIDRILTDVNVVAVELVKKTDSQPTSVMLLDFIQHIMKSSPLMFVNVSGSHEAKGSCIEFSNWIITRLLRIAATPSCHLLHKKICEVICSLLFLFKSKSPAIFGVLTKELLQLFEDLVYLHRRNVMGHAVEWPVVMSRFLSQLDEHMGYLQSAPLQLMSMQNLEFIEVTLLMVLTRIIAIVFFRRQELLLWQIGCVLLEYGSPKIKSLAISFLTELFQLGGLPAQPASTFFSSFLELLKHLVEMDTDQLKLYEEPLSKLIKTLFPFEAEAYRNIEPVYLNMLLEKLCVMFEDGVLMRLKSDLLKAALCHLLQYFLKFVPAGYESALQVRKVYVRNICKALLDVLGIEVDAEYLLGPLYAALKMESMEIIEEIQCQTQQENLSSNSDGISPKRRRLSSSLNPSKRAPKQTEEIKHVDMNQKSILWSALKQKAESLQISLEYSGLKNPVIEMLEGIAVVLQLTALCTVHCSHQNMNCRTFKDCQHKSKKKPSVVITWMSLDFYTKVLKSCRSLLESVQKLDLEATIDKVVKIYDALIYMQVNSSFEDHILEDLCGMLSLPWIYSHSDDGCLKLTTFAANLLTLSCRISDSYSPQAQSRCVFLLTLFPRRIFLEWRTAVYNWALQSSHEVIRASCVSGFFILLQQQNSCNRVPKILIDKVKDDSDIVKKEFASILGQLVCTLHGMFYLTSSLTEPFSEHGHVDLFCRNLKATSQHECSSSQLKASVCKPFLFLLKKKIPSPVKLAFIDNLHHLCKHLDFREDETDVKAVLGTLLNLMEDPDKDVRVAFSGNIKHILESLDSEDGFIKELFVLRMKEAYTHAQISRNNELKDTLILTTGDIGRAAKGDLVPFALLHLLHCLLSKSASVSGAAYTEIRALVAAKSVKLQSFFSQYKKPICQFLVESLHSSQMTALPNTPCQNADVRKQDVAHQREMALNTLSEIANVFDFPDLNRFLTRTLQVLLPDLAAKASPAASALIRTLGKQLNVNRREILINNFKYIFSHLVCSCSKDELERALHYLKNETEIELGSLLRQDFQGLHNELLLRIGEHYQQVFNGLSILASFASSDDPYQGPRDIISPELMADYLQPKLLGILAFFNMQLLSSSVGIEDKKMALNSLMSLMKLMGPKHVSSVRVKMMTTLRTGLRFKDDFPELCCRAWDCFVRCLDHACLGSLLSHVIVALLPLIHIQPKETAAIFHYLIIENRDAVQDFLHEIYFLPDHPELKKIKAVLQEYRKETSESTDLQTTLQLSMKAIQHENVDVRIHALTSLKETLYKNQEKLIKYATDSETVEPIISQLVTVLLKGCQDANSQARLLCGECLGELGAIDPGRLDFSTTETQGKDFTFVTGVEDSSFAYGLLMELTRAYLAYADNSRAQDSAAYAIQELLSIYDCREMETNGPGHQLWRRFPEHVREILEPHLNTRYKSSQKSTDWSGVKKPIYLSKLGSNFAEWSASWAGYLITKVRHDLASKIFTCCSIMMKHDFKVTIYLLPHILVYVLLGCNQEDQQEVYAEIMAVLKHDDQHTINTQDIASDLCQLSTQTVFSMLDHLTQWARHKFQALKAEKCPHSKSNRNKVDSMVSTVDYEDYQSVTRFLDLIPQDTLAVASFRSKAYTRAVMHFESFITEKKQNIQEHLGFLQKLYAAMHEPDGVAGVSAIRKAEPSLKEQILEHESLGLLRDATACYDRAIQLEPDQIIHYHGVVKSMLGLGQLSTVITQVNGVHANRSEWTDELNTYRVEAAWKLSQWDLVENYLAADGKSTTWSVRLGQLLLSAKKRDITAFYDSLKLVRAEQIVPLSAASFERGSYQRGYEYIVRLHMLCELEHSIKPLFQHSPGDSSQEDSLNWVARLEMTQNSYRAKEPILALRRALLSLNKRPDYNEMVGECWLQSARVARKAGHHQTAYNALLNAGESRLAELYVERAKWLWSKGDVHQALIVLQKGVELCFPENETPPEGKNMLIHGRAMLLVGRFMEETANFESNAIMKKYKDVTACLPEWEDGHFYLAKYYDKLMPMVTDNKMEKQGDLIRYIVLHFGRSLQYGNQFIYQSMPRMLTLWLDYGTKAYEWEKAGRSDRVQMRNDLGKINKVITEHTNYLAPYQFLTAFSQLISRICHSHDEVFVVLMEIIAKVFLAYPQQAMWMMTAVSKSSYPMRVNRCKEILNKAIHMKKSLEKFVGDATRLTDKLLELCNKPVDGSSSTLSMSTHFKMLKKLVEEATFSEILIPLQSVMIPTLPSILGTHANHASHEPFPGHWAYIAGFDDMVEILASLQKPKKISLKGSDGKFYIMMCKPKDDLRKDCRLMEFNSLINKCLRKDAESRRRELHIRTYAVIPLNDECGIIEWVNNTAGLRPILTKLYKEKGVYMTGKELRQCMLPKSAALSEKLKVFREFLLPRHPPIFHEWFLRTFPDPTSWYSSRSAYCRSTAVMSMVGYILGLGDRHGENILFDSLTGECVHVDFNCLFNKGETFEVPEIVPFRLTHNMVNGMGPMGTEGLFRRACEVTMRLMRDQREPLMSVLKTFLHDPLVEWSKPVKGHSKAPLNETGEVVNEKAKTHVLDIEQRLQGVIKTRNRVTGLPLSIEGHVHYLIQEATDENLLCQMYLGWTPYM

Row | Ki (full-length ATR) | SMILES | CP3 Shift [1]
1 | ≤ 0.01 µM | CNCc1ccc(-c2nnc(-c3cc(-c4ccc(S(=O)(=O)[C@@H]5CCOC5)cc4)cnc3N)o2)cc1 [III-1, 3-[5-[4-(Methylaminomethyl)phenyl]-1,3,4-oxadiazol-2-yl]-5-[4-[(3R)-tetrahydrofuran-3-yl]sulfonylphenyl]pyridin-2-amine] | –
2 | 0.01 to 0.1 µM | Nc1ncc(-c2ccc(C(=O)N3CCCNCC3)cc2)cc1-c1nnc(-c2ccccc2)o1 [III-2, [4-[6-Amino-5-(5-phenyl-1,3,4-oxadiazol-2-yl)-3-pyridyl]phenyl]-(1,4-diazepan-1-yl)methanone] | –
3 | 0.01 to 0.1 µM | CS(=O)(=O)c1ccc(-c2cnc(N)c(-c3nnc(-c4ccccc4)o3)c2)cc1 [III-3, 5-(4-(Methylsulfonyl)phenyl)-3-(5-phenyl-1,3,4-oxadiazol-2-yl)pyridin-2-amine] | –
4 | 0.01 to 0.1 µM | CCS(=O)(=O)N1CC=C(c2cnc(N)c(-c3nnc(-c4ccccc4)o3)c2)CC1 [III-4, 5-(1-Ethylsulfonyl-3,6-dihydro-2H-pyridin-4-yl)-3-(5-phenyl-1,3,4-oxadiazol-2-yl)pyridin-2-amine] | –
5 | ≤ 0.01 µM | CNCc1ccc(-c2nnc(-c3cc(-c4cnc(S(=O)(=O)C(C)C)cn4)cnc3N)o2)cc1 [III-5, 5-(5-Isopropylsulfonylpyrazin-2-yl)-3-[5-[4-(methylaminomethyl)phenyl]-1,3,4-oxadiazol-2-yl]pyridin-2-amine] | –
6 | 0.01 to 0.1 µM | Cc1ccc(-c2cc(-c3cc(-c4ccc(S(=O)(=O)C(C)C)cn4)cnc3N)on2)cc1 [III-6, 5-(5-Isopropylsulfonyl-2-pyridyl)-3-[3-(p-tolyl)isoxazol-5-yl]pyridin-2-amine] | –
7 | 0.1 to 5 µM | Nc1ncc(-c2cccnc2)cc1C(=O)Nc1ccccc1 [III-7, 2-Amino-N-phenyl-5-(3-pyridyl)pyridine-3-carboxamide] | –
8 | ≤ 0.01 µM | CNCc1ccc(-c2cc(-c3cc(-c4ccc(S(=O)(=O)C(C)C)cn4)cnc3N)on2)c(F)c1 [III-8, 3-[3-[2-Fluoro-4-(methylaminomethyl)phenyl]isoxazol-5-yl]-5-(5-isopropylsulfonyl-2-pyridyl)pyridin-2-amine] | .234 µM
9 | 0.01 to 0.1 µM | CNCc1ccc(-c2nnc(-c3cc(-c4ccsc4)cnc3N)o2)cc1 [III-9, 3-[5-[4-(Methylaminomethyl)phenyl]-1,3,4-oxadiazol-2-yl]-5-(3-thienyl)pyridin-2-amine] | –
10 | ≤ 0.01 µM | CNCc1ccc(-c2nnc(-c3cc(-c4ccc(S(=O)(=O)C(C)C)cn4)cnc3N)o2)cc1 [III-10, 5-(5-Isopropylsulfonyl-2-pyridyl)-3-[5-[4-(methylaminomethyl)phenyl]-1,3,4-oxadiazol-2-yl]pyridin-2-amine] | .078 µM
11 | ≤ 0.01 µM | CNCc1ccc(-c2nnc(-c3cc(-c4ccc(S(=O)(=O)C(C)C)cc4)cnc3N)o2)cc1 [III-11, 5-(4-Isopropylsulfonylphenyl)-3-[5-[4-(methylaminomethyl)phenyl]-1,3,4-oxadiazol-2-yl]pyridin-2-amine] | .156 µM
12 | ≤ 0.01 µM | CNCc1ccc(-c2cc(-c3cc(-c4ccc(S(=O)(=O)C(C)C)cn4)cnc3N)on2)cc1 [III-12, 5-(5-Isopropylsulfonyl-2-pyridyl)-3-[3-[4-(methylaminomethyl)phenyl]isoxazol-5-yl]pyridin-2-amine] | .156 µM

Reference: patent publication US9096584B2, “Compounds useful as inhibitors of ATR kinase” (Vertex Pharmaceuticals Incorporated, priority 2010, dated 2015)
